Laboratory results taken from PubChem BioAssay (NCI).
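In this assay, cells in 96-well plates receive the compound at five concentrations for 48 hours. Endpoints are linearly interpolated between the surrounding concentrations. GI50: concentration for 50% inhibition of growth. TGI denotes the concentration required for complete inhibition of growth.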

Key:
Assay in all cases: NCI tumour cell line growth inhibition, 48 h
[1] = system: CAKI-1 renal
[2] = system: OVCAR-5 ovarian
[3] = system: RXF 393 renal
[4] = system: U251 CNS
[5] = system: HL-60(TB) leukemia
[6] = system: KM12 colon
[7] = system: HCC-2998 colon
[8] = system: SK-MEL-2 melanoma
[9] = system: K-562 leukemia
[10] = system: SK-MEL-5 melanoma

SMILES: CC(CC(=O)Nc1ccc(NC(=O)CC(C)N=NC(N)=O)cc1)N=NC(N)=O (configuration not stated)
- TGI [1]: > 100 µM
- TGI [2]: > 100 µM
- TGI [3]: > 100 µM
- TGI [4]: > 100 µM
- TGI [5]: > 100 µM
- TGI [6]: > 100 µM
- TGI [7]: > 100 µM
- TGI [8]: > 100 µM
- TGI [9]: > 100 µM
- TGI [10]: > 100 µM

SMILES: CCCCCC/C(CC(=O)CCC(=O)NCCc1ccccc1)=N\Nc1ccc([N+](=O)[O-])cc1[N+](=O)[O-]
- TGI [1]: > 100 µM
- TGI [2]: > 100 µM
- TGI [3]: > 100 µM
- TGI [4]: > 100 µM
- TGI [5]: 70.5 µM
- TGI [6]: > 100 µM
- TGI [7]: > 100 µM
- TGI [8]: > 100 µM
- TGI [9]: > 100 µM
- TGI [10]: > 100 µM

SMILES: COc1ccc(/C=C2/CSC/C(=C/c3ccc(OC)c(OC)c3)C2=O)cc1OC
- TGI [1]: 12.8 µM
- TGI [2]: 12.7 µM
- TGI [3]: 8.62 µM
- TGI [4]: 2.72 µM
- TGI [5]: > 100 µM
- TGI [6]: 3.26 µM
- TGI [7]: 6.28 µM
- TGI [8]: 7.61 µM
- TGI [10]: 7.01 µM

SMILES: COc1cc2c(=O)n(CC3CCCCC3)c3c4cc[nH]c4ncc3c2cc1OC
- GI50 [1]: 1.19 µM
- TGI [1]: 7.39 µM
- GI50 [2]: 1.74 µM
- TGI [2]: 24.2 µM
- GI50 [3]: 0.407 µM
- TGI [3]: 5.55 µM
- GI50 [4]: 4.85 µM
- TGI [4]: 15.7 µM
- GI50 [5]: 12.8 µM
- TGI [5]: > 50 µM
- GI50 [6]: 0.0362 µM
- TGI [6]: 34.9 µM
- GI50 [7]: 18.7 µM
- TGI [7]: > 50 µM
- GI50 [8]: 8.69 µM
- TGI [8]: 41.7 µM
- GI50 [9]: 0.187 µM
- TGI [9]: 15.8 µM
- GI50 [10]: 4.37 µM
- TGI [10]: 25.9 µM

SMILES: COC1CC(n2cc(F)c(N)nc2=O)OC1CO (configuration not stated)
- TGI [1]: > 100 µM
- TGI [2]: > 100 µM
- TGI [3]: > 100 µM
- TGI [4]: > 100 µM
- TGI [5]: > 100 µM
- TGI [6]: > 100 µM
- TGI [7]: > 100 µM
- TGI [8]: > 100 µM
- TGI [9]: > 100 µM
- TGI [10]: > 100 µM

SMILES: CN(C)CCOc1ccc2c(c1)C(=O)/C(=C\c1ncc([N+](=O)[O-])n1C)C2
- GI50 [1]: 0.386 µM
- TGI [1]: 2.4 µM
- GI50 [2]: 2.02 µM
- TGI [2]: 5.7 µM
- GI50 [3]: 0.316 µM
- TGI [3]: 1.25 µM
- GI50 [4]: 1.12 µM
- TGI [4]: 4.75 µM
- GI50 [5]: 0.235 µM
- TGI [5]: 1.09 µM
- GI50 [6]: 1.19 µM
- TGI [6]: 3.21 µM
- GI50 [7]: 0.507 µM
- TGI [7]: 1.75 µM
- GI50 [8]: 0.631 µM
- TGI [8]: 1.93 µM
- GI50 [9]: 0.295 µM
- GI50 [10]: 0.179 µM
- TGI [10]: 0.402 µM

SMILES: CCCCCCCCc1cc(O)ccc1O
- GI50 [1]: 21.3 µM
- TGI [1]: 90 µM
- GI50 [2]: 19.9 µM
- TGI [2]: 42.8 µM
- GI50 [3]: 10.7 µM
- TGI [3]: 24.9 µM
- GI50 [4]: 18.5 µM
- TGI [4]: 40.6 µM
- GI50 [5]: 3.53 µM
- TGI [5]: 16.2 µM
- GI50 [6]: 21.4 µM
- TGI [6]: 51.6 µM
- GI50 [7]: 18.4 µM
- TGI [7]: 34.4 µM
- GI50 [8]: 13 µM
- TGI [8]: 30.8 µM
- GI50 [9]: 14.9 µM
- TGI [9]: 67.5 µM
- GI50 [10]: 17 µM
- TGI [10]: 30.7 µM

SMILES: Oc1ccc(O)c(-n2cccn2)c1-n1cccn1
- TGI [1]: > 100 µM
- TGI [2]: > 100 µM
- TGI [3]: > 100 µM
- TGI [4]: > 100 µM
- TGI [5]: > 10 µM
- TGI [6]: > 100 µM
- TGI [7]: > 100 µM
- TGI [8]: > 100 µM
- TGI [9]: > 100 µM
- TGI [10]: > 100 µM

SMILES: COC(=O)C(/C(=N\O)C(=O)Nc1ccc(Br)cc1)c1nc2ccccc2[nH]c1=O (configuration not stated)
- TGI [1]: > 100 µM
- TGI [2]: > 100 µM
- TGI [3]: 89.2 µM
- TGI [4]: > 100 µM
- TGI [5]: 55.3 µM
- TGI [6]: > 100 µM
- TGI [7]: > 100 µM
- TGI [8]: 49.2 µM
- TGI [9]: 67 µM
- TGI [10]: 68.2 µM

SMILES: CS(=O)(=O)CCNCc1ccoc1-c1ccc2ncnc(Nc3ccc(OCc4ccccc4)cc3)c2c1
- GI50 [1]: 1.78 µM
- TGI [1]: > 25 µM
- GI50 [2]: > 25 µM
- TGI [2]: > 25 µM
- GI50 [3]: 7.25 µM
- TGI [3]: > 25 µM
- GI50 [4]: > 25 µM
- TGI [4]: > 25 µM
- GI50 [5]: 24.4 µM
- TGI [5]: > 25 µM
- GI50 [6]: > 25 µM
- TGI [6]: > 25 µM
- GI50 [7]: > 25 µM
- TGI [7]: > 25 µM
- GI50 [8]: > 25 µM
- TGI [8]: > 25 µM
- GI50 [9]: 14.4 µM
- TGI [9]: > 25 µM
- GI50 [10]: 9.74 µM
- TGI [10]: > 25 µM

SMILES: COc1cc([C@@H]2c3cc4c(cc3[C@@H](NCc3cccc(F)c3)C3COC(=O)[C@@H]32)OCO4)cc(OC)c1O (some centres not stated)
- TGI [1]: 51.4 µM
- TGI [2]: 51.3 µM
- TGI [3]: 45.3 µM
- TGI [4]: 7.11 µM
- TGI [5]: 3.93 µM
- TGI [6]: 17.4 µM
- TGI [7]: 20.9 µM
- TGI [8]: 29.5 µM
- TGI [9]: 28.9 µM
- TGI [10]: 17.9 µM

SMILES: COc1ccc(/C=C/C(=O)c2ccc(Nc3nc(Nc4ccc(F)cc4)nc(Nc4ccc(F)cc4)n3)cc2)cc1
- GI50 [1]: 38.3 µM
- TGI [1]: > 100 µM
- GI50 [2]: 40.2 µM
- TGI [2]: > 100 µM
- GI50 [3]: 3.09 µM
- TGI [3]: 14.2 µM
- GI50 [4]: 16.7 µM
- TGI [4]: 56.2 µM
- GI50 [5]: 4.96 µM
- TGI [5]: 30.5 µM
- GI50 [6]: 7.62 µM
- TGI [6]: 29.3 µM
- GI50 [7]: 14.1 µM
- TGI [7]: 53.8 µM
- GI50 [8]: 14.1 µM
- TGI [8]: 34.6 µM
- GI50 [9]: 4.07 µM
- TGI [9]: > 100 µM
- GI50 [10]: 3.51 µM
- TGI [10]: 18.5 µM

SMILES: CC1/C(=N/O)CC(c2ccccc2)N(N=O)C1c1ccccc1 (configuration not stated)
- TGI [1]: > 100 µM
- TGI [3]: > 100 µM
- TGI [4]: > 100 µM
- TGI [5]: > 100 µM
- TGI [6]: > 100 µM
- TGI [7]: > 100 µM
- TGI [8]: > 100 µM
- TGI [9]: > 100 µM
- TGI [10]: > 100 µM

SMILES: CCC(C)N1CN(c2ccccc2)C2(CCN(CCCC3(c4ccc(F)cc4)OCCO3)CC2)C1=O (configuration not stated)
- TGI [1]: > 68.3 µM
- TGI [2]: 22.4 µM
- TGI [3]: 26.5 µM
- TGI [4]: 10.9 µM
- TGI [5]: 23 µM
- TGI [6]: > 50.6 µM
- TGI [7]: 26.9 µM
- TGI [8]: 28.7 µM
- TGI [9]: 34.3 µM
- TGI [10]: 8.24 µM

SMILES: CCOc1ccccc1NC(=O)C1=C(C)NC(C)=C(C(=O)Nc2ccccc2OCC)C1c1cccc([N+](=O)[O-])c1
- TGI [1]: > 100 µM
- TGI [2]: > 100 µM
- TGI [3]: > 100 µM
- TGI [4]: > 100 µM
- TGI [5]: > 100 µM
- TGI [6]: > 100 µM
- TGI [7]: > 100 µM
- TGI [8]: > 100 µM
- TGI [9]: > 100 µM
- TGI [10]: > 100 µM

SMILES: Cc1nc(-n2nc(-c3ccccc3)cc2-c2ccccc2)sc1C(=O)/C=C/c1cccc([N+](=O)[O-])c1
- TGI [1]: 49.6 µM
- TGI [2]: 50.9 µM
- TGI [3]: 29.8 µM
- TGI [4]: 32.5 µM
- TGI [5]: 31.3 µM
- TGI [6]: 11.4 µM
- TGI [7]: 28.8 µM
- TGI [8]: 34.2 µM
- TGI [9]: 28.3 µM
- TGI [10]: 26.7 µM

SMILES: COC(=O)c1cc(C)[nH]c2c(C)cc3nc4ccccc4c3c12
- GI50 [1]: 2.89 µM
- TGI [1]: 13.4 µM
- GI50 [2]: 15.6 µM
- TGI [2]: 32.7 µM
- GI50 [3]: 11.6 µM
- TGI [3]: 25 µM
- GI50 [4]: 10.7 µM
- TGI [4]: 23.9 µM
- GI50 [5]: 7.34 µM
- TGI [5]: 55.3 µM
- GI50 [6]: 4.94 µM
- TGI [6]: 18.1 µM
- GI50 [7]: 8.99 µM
- TGI [7]: 23.9 µM
- GI50 [8]: 13.2 µM
- TGI [8]: 28.8 µM
- GI50 [9]: 4.34 µM
- TGI [9]: 46.1 µM
- GI50 [10]: 5.97 µM
- TGI [10]: 19.2 µM
